Measurements from PubChem BioAssay (NCI).
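48-hour exposure; five concentrations; linearly interpolated endpoints. Definition used: TGI = concentration required for complete inhibition of growth.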

Legend:
Assay in all cases: NCI anticancer screen, dose series, 48 h
[1] = tested on: RXF 393 renal
[2] = tested on: RPMI-8226 leukemia
[3] = tested on: SF-268 CNS
[4] = tested on: A549 NSCLC
[5] = tested on: HOP-92 NSCLC
[6] = tested on: HT29 colon
[7] = tested on: K-562 leukemia
[8] = tested on: U251 CNS
[9] = tested on: SF-539 CNS
[10] = tested on: CAKI-1 renal

Structure (SMILES)	TGI [1] [µM]	TGI [2] [µM]	TGI [3] [µM]	TGI [4] [µM]	TGI [5] [µM]	TGI [6] [µM]	TGI [7] [µM]	TGI [8] [µM]	TGI [9] [µM]	TGI [10] [µM]
CCCCCCc1cn([C@H]2C[C@H](O)[C@@H](CO)O2)c(=O)[nH]c1=O	> 100	> 100	> 100	> 100	> 100	> 100	> 100	> 100	> 100	> 100
COc1ccc(NC(=S)NNC(=O)c2cc(-c3ccccc3)nc3ccccc23)cc1	44.6	43.2	90.1	47	31.9	39.3	46.5	38.5	27.2	60
O=C1OC(c2ccccc2)=N/C1=C/N1CCCC1C(=O)O (stereo not given)	> 100	> 100	> 100	> 100	> 100	> 100	> 100	> 100	> 100	> 100
C=CCn1c(=O)c2ccccc2[n+]2c(-c3cccc([N+](=O)[O-])c3)csc12	> 100	> 100	> 100	> 100	> 100	> 100	> 100	> 100	> 100	> 100
O=C(C=P(c1ccccc1)(c1ccccc1)c1ccccc1)c1ccc(-c2ccc(F)cc2F)cc1	7.29	4.43	15.5	11.4	7.24	3.94	5.31	13.9	10.8	5.55
CCOC(=O)CCC(C(=O)OCC)n1nnc2cc(Nc3c(C)[n+]([O-])c4ccc(Cl)cc4[n+]3[O-])ccc21 (stereo not given)	> 100	> 100	> 100	> 100	> 100	> 100	> 100	> 100	> 100	> 100
Nc1ccc(-c2nc3ccccc3s2)cc1	33.5	61.1	31.4	63.2	31.9	40.1	58.4	31.9	45.1	> 67.8
CC1(O)C(=O)OC2CC([C@]3(O)CCC4[C@@H]5C[C@H]6O[C@]67[C@@H](O)C=CC(=O)[C@]7(C)C5CC[C@@]43C)C1(C)C2 (stereo not given in full)	13.2	19.7	> 92	> 100	10.9	36.5	> 31.6	> 72.6	44.5	25.4
Cc1nnc2sc(-c3ccc([N+](=O)[O-])o3)nn12	25.9	34.7	27	> 100	35.2	34.7	26.1	27.9	18.2	22.3
CSc1ccccc1P(CCP(c1ccccc1SC)c1ccccc1SC)c1ccccc1SC	> 84.9	> 88.1	> 100	> 100	> 100	> 100	> 100	> 100	> 79.1	> 100
CCCCCCCCCCCCCCCCNc1ccn(C2CC(OP(=O)(O)OCC3OC(n4cc(CC)c(=O)[nH]c4=O)CC3O)C(CO)O2)c(=O)n1 (stereo not given)	46.4	38.8	33.5	55.2	> 100	46.1	44.9	89.3	34.4	> 100
OC(O)(C(F)(F)F)C(F)(F)F	> 100	> 100	> 100	> 100	> 100	> 100	> 100	> 100	> 100	> 100
CN(C)c1ccc(/C=C2\C[C@H]3[C@@H]4CCc5cc(O)ccc5[C@H]4CC[C@]3(C)C2=O)cc1	> 100	> 100	61	> 100	> 100	> 100	> 100	> 100	62.8	> 100
O=C(NCc1cccnc1)C(=O)NCc1cccnc1	> 100	> 100	> 100	> 100	> 100	> 100	> 100	> 100	> 100	> 100
O=c1/c(=C/c2ccc(-c3ccc(Cl)cc3Cl)o2)sc2n1[C@@H](c1ccc3c(c1)OCO3)C=C(c1cc(F)c(Cl)cc1Cl)N=2	> 100	88	> 100	> 100	95.5	74.7	> 100	> 100	> 100	> 100
CC(=O)Nc1ccc(/C=C(\NC(=O)c2ccccc2)C(=O)NNS(=O)(=O)c2ccc(C)cc2)cc1	> 100	49	> 100	> 100	> 100	> 100	> 100	> 100	> 100	> 100
COC(=O)C[C@H](CCSC)NC(=O)C[C@H](CCSC)NC(=O)C[C@H](CCSC)NC(=O)OC(C)(C)C	33.6	> 100	59.2	> 100	36.9	> 100	> 100	56	54.1	> 100
COc1ccc(C2NC(=O)Nc3c2c(=O)oc2c3ccc3ccccc32)cc1 (stereo not given)	> 100	> 100	> 100	> 100	> 100	> 100	> 100	> 100	> 100	> 100
